Assay results taken from article PMC9385959, “Mammalian derived lipocalin and secretoglobin respiratory allergens strongly bind ligands with potentially immune modulating properties” (Frontiers in Allergy, 2022).
Several values for one entry are separate records, joined by “and”; a condition that tells them apart may be missing. Equal values may be shown once. Read-outs that look alike come from different tables or passages of the source.

Columns and labels:
[1] = molecular target: Ory c 3 (Oryctolagus cuniculus, UniProt Q9GK63+Q9GK67); assay: Competitive fluorescence-quenching assay, Ory c 3; type: binding, rabbit; settings: 5 μM Ory c 3-1-AMA complex, 50 μM ligand, n = 2; for inhibition at 50 µM: read-out: Mean fluorescence inhibition
Procedure: (§1) Fluorescence quenching assays were performed as previously described ([45]), with modifications. Fluorochromes and ligands were purchased from Sigma Aldrich (Steinheim, Germany), Carl Roth (Karlsruhe, Germany) and TCI Europe N.V. (Zwijndrecht, Belgium).
(§2) Stock solutions were prepared at a concentration of 10 mM in 100% ethanol for the fluorochromes 1-aminoanthracene (1-AMA), 8-anilino-1-naphthalensulfonic acid (1,8-ANS) and for all ligands, and in 100% methanol for n-phenyl-1-naphthylamine (1-NPN), respectively. Iron catecholate ligands (siderophores) were prepared as previously described ([46]). Fluorochrome-protein complexes were analyzed at an equimolar concentration of 5 μM in PBS with 5% ethanol in a volume of 100 μL per well in black 96-well non-binding microplates (Greiner Bio-One GmbH, Frickenhausen, Germany). Solutions containing only protein or the respective fluorescent probe in PBS with 5% ethanol served as controls. Fluorochrome-protein complexes were incubated with orbital shaking for 10 min at 500 rpm at room temperature (RT) before measurement using the fluorescence reader TECAN Infinite 200 Pro (Tecan Trading AG, Switzerland). Excitation wavelengths were fixed at 380 nm for 1-AMA and 1,8-ANS, and 337 nm for 1-NPN. Fluorescence emission spectra were recorded in 5 nm steps between 420 and 560 nm for 1-AMA and 1,8-ANS and between 380 and 500 nm for 1-NPN. The establishment of fluorescent quenching assay parameters for each allergen is explained in the results Section Fluorescence-quenching assay set up. Binding affinities were analyzed by non-linear regression in GraphPad Prism Version 9.3.1 (GraphPad Software, LLC). For the ligand competition assays, ligands were added to fluorochrome-allergen complexes with a final buffer composition of 5% ethanol in PBS in a volume of 100 μL and incubated for 30 min at 500 rpm at RT and further equilibrated for another 30 min without shaking before fluorescence measurement.
(§3) The binding affinities of non-fluorescent ligands is inferred to by their ability to compete and displace the fluorochromes bound to the allergen at a certain concentration. This leads to a measurable decrease in fluorescence intensity that will be expressed as fluorescence inhibition (Figure 6). For a given allergen, the ligand with the strongest inhibition has the highest binding affinity. […] Competitive ligand binding was analyzed by non-linear regression and inhibitory dissociation constants (Ki) were calculated.

[2] = molecular target: T1, Fel d 1 (Felis catus, UniProt P30438+P30440); assay: Competitive fluorescence-quenching assay, Fel d 1; type: binding, cat
T1 construct: polyhistidine tag (C); made in house; host or cells: E. coli Rosetta-gami 2
T1 sequence (P30438+P30440 with tags, fused parts or gaps): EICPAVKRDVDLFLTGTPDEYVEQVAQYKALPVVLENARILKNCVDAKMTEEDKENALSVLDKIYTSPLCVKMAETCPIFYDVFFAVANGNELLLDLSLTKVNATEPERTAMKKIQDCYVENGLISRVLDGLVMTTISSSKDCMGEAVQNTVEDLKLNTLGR
Procedure: as §1, §2, §3

[3] = molecular target: T2, Can f 1 (Canis lupus familiaris, UniProt O18873); assay: Competitive fluorescence-quenching assay, Can f 1; type: binding, dog; settings: for inhibition at 50 µM: read-out: Mean fluorescence inhibition
T2 construct: made in house; host or cells: E. coli Rosetta-gami 2(DE3)
Procedure: as §1, §2, §3

[4] = molecular target: Ory c 2; assay: Competitive fluorescence-quenching assay, Ory c 2; type: binding, rabbit; settings: for Mean fluorescence inhibition: 5 μM Ory c 2-1-AMA complex, 50 μM ligand, n = 2
Procedure: as §1, §2, §3

[5] = molecular target: Cav p 1.0101 (Cavia porcellus, UniProt A0A484HM70, S19A); assay: Competitive fluorescence-quenching assay, Cav p 1.0101; type: binding, guinea pig; settings: for inhibition at 50 µM / Mean fluorescence inhibition: 5 μM Cav p 1.0101-1-AMA complex, 50 μM ligand, n = 2
Procedure: as §1, §2, §3

[6] = molecular target: T3, human LCN1 (Homo sapiens, UniProt P31025); assay: Competitive fluorescence-quenching assay, LCN1; type: binding; settings: for Ki: 5 μM LCN1, fluorochrome 1,8-ANS, read-out: Ligand inhibition constant Ki
T3 construct: made in house; host or cells: E. coli Rosetta-gami 2(DE3)
Procedure: as §1, §2, §3

[7] = molecular target: Cav p 1.0201 (Cavia porcellus, UniProt A0A484HRI4); assay: Competitive fluorescence-quenching assay, Cav p 1.0201; type: binding, guinea pig; settings: for inhibition at 50 µM / Mean fluorescence inhibition: 5 μM Cav p 1.0201-1-AMA complex, 50 μM ligand, n = 2
Procedure: as §1, §2, §3

[8] = molecular target: T4, Fel d 4 (Felis catus, UniProt Q5VFH6); assay: Competitive fluorescence-quenching assay, Fel d 4; type: binding, cat
T4 construct: polyhistidine tag (C); made in house; host or cells: E. coli Rosetta-gami 2
T4 sequence (Q5VFH6 16-186): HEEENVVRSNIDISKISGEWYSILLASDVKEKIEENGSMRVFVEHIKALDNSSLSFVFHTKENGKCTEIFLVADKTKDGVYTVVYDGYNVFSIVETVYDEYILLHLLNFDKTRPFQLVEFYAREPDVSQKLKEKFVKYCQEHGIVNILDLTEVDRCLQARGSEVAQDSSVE
Procedure: as §1, §2, §3

[9] = molecular target: T5, Can f 6 (Canis lupus familiaris, UniProt H2B3G5); assay: Competitive fluorescence-quenching assay, Can f 6; type: binding, dog; settings: for Ki: 5 μM Can f 6, fluorochrome 1-NPN, to be interpreted with caution, imprecise Ki values, read-out: Ligand inhibition constant Ki
T5 construct: polyhistidine tag (C); made in house; host or cells: E. coli Rosetta-gami 2
T5 sequence (H2B3G5 16-190): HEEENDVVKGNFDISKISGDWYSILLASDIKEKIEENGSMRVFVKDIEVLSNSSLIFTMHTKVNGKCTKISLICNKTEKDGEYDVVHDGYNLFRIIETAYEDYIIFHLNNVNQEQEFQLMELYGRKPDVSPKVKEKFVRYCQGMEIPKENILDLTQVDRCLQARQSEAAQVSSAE
Procedure: as §1, §2, §3

[10] = 5 μM Can f 1-1,8-ANS complex, 50 μM ligand, n = 2
[11] = 5 μM LCN1-1,8-ANS complex, 50 μM ligand, n = 2
[12] = 5 μM Fel d 1 + 1,8-ANS complex, 100 μM ligand, read-out: Mean fluorescence inhibition

What does the source list for `CCCCCCCCCC(=O)O` [Decanoic acid, decanoic acid]?
inhibition at 50 µM [1]: 76.1%; inhibition at 100 µM ([2]; read-out: Mean fluorescence inhibition, 5 μM Fel d 1 + 1,8-ANS complex, 100 μM ligand): 71.2%; inhibition at 100 µM ([2]; read-out: Mean fluorescence inhibition, 5 μM Fel d 1 + 1-NPN complex, 100 μM ligand): 101%

What does the source list for `CC(C)=CCC/C(C)=C/CC/C(C)=C/CO` [Farnesol, farnesol]?
inhibition at 50 µM [3, 10]: 43.1%; Ki ([4]; 5 μM Ory c 2, fluorochrome 1-AMA, read-out: Ligand inhibition constant Ki): 1100 nM; Mean fluorescence inhibition [4]: 96.0%; inhibition at 50 µM [1]: 91.3%; inhibition at 50 µM [5]: 98.9%; Ki ([5]; Ki (printed in Figure 6D), Cav p 1.0101, titration 0–60 μM ligand, unit inferred): 580 nM; Ki ([5]; Ligand inhibition constant Ki, 5 μM Cav p 1.0101, fluorochrome 1-AMA): 600 nM; inhibition at 50 µM [6, 11]: 90.9%; inhibition at 100 µM [2, 12]: 11.2%; Ki ([7]; 5 μM Cav p 1.0201, fluorochrome 1-AMA, read-out: Ligand inhibition constant Ki): 600 nM; inhibition at 50 µM [7]: 95.5%

`CCCCCCCCCCCCCCC(=O)O` [Pentadecanoic acid, pentadecanoic acid] was tested. Which inhibition at 50 µM [3] did it give?
The inhibition at 50 µM was 41.4%.

And the inhibition at 50 µM [6, 11]?
Its inhibition at 50 µM is 88.7%.

What does the source list for `CCCCCCCCCCCCCCCO` [Pentadecanol, pentadecanol]?
Mean fluorescence inhibition [4]: 20.8%; Mean fluorescence inhibition [5]: 51.3%; Mean fluorescence inhibition [7]: 94.5%

Which results are given for `CCCCCCCCCCCCCC(=O)O` [Tetradecanoic acid, tetradecanoic acid]?
Ki ([3]; 5 μM Can f 1, fluorochrome 1,8-ANS, read-out: Ligand inhibition constant Ki): 7400 nM; inhibition at 50 µM [3]: 60.8%; Ki [6]: 1800 nM; inhibition at 50 µM [6, 11]: 91.9%

`CCCCCCCCCCCCO` [1-Dodecanol, 1-dodecanol] was tested. Which Mean fluorescence inhibition [4] did it give?
Its Mean fluorescence inhibition is 84.6%.

What about the inhibition at 50 µM [1] of the same molecule?
The inhibition at 50 µM was 95.6%.

What about the inhibition at 50 µM [5] of the same molecule?
The inhibition at 50 µM was 98.9%.

What about the inhibition at 100 µM [2, 12] of the same molecule?
The inhibition at 100 µM was 44.2%.

And the inhibition at 50 µM [7]?
Its inhibition at 50 µM is 97%.

Which Ki ([8]; 5 μM Fel d 4, fluorochrome 1-NPN, to be interpreted with caution, imprecise Ki values, read-out: Ligand inhibition constant Ki) does the source give for `COc1nccnc1CC(C)C` [IBMP, 2-isobutyl-3-methoxypyrazine] here?
The Ki was 39200 nM.

And the inhibition at 100 µM ([8]; 5 μM Fel d 4-1-NPN complex, 100 μM ligand, read-out: Mean fluorescence inhibition)?
Its inhibition at 100 µM is 96.8%.

And the Ki [9]?
The Ki was 49600 nM.

And the inhibition at 100 µM ([9]; 5 μM Can f 6-1-NPN complex, 100 μM ligand, high standard error, read-out: Mean fluorescence inhibition)?
Its inhibition at 100 µM is 118%.

How did the Mean fluorescence inhibition [5] turn out when `CC(C)CCC[C@@H](C)[C@H]1CC[C@H]2[C@@H]3CC=C4C[C@@H](O)CC[C@]4(C)[C@H]3CC[C@]12C` [cholesterol] was run?
Its Mean fluorescence inhibition is “not observed”.

And the Mean fluorescence inhibition [7]?
The Mean fluorescence inhibition was “not observed”.

What does the source list for Lipopolysaccharide?
Mean fluorescence inhibition [3, 10]: 57.4%; Mean fluorescence inhibition [6, 11]: 81% and 81.2%

What does the source list for `CCCCC/C=C\C/C=C\C/C=C\C/C=C\CCCC(=O)O` [Arachidonic acid, arachidonic acid]?
Ki [3]: 1300 nM; inhibition at 50 µM [3]: 86.4%; Ki [6]: 1900 nM; inhibition at 50 µM [6, 11]: 96.7%

`CCCCCCCCN` [Octanamine, octanamine] was tested. Which Mean fluorescence inhibition ([8]; 5 μM Fel d 4-1-NPN complex, 100 μM ligand) did it give?
The Mean fluorescence inhibition was 94.9%.

What about the Mean fluorescence inhibition [1] of the same molecule?
The Mean fluorescence inhibition was 54.7%.

What about the Ki [9] of the same molecule?
The Ki was 273000 nM.

And the Mean fluorescence inhibition ([9]; 5 μM Can f 6-1-NPN complex, 100 μM ligand, high standard error)?
Its Mean fluorescence inhibition is 148.7%.

And the Mean fluorescence inhibition ([2]; 5 μM Fel d 1 + 1,8-ANS complex, 100 μM ligand)?
The Mean fluorescence inhibition was 37.7%.

What about the Mean fluorescence inhibition ([2]; 5 μM Fel d 1 + 1-NPN complex, 100 μM ligand) of the same molecule?
The Mean fluorescence inhibition was 81.1%.
